Assay [1] concerns MUC5AC protein. Put plainly: Inhibition of MUC5AC protein secretion (modified ELISA) in H292 cells. In kind it is cell-based, human. The conditions noted are these: TNF-alpha 20 ng/ml. As for the experimental part: In order to determine the inhibitory effect on the reproduction of MUC5AC protein, following test was performed by the method disclosed in the literature (Sikder, M A. et al., Phytother. Res., 2014, 28, 62-68)
For the immunoassay on reproduced MUCSAC, 50 μL of collected supernatant in Experimental Example 3 was distributed to 96 well plate and dried in a thermostat at 50[…].
After washing with 1% BSA added PBS solution, MUCSAC antibody (ab3649, abcam Co.) was added to react together at room temperature for 1 hour and then secondary antibody was added thereto to react together for 1 hour. After re-washing, 3,3′,5,5′-tetramethylbenzidine peroxide solution (54827-17-7, Sigma-aldrich) was added thereto to react together for 20 mins. After stopping the reaction by adding sulfuric acid solution, the absorbance was determined by VERSAmax microplate reader, (SMP500-14915, Molecular Devices, USA) at 450 nm (Sikder, M. A. et al., Phytother. Res., 2014, 28, 62-68; Takeyama, K. et al. Proc. Natl. Acad. Sci. U.S.A., 1999, 96, 3081-3086).

Assay [2] has as its system asthma-induced animal model (OVA). Kind of assay: Anti-asthma activity in OVA-sensitized/challenged mouse model. In kind it is in vivo, BALB/c mice. The conditions noted are these: OVA asthma mice. As to the method:
In order to determine the anti-asthma activity of test sample in asthma-induced animal model, following test was performed by the method disclosed in the literature (Shin, I. S. et al., Food Chem. Toxicol., 2013, 62, 506-513)
Specific pathogen-free female BALB/c mice (about 20 g), aged 6 weeks, which were routinely screened serologically for relevant respiratory pathogens, were purchased from Samtako Co. (Seoul, Korea) and acclimated with the experimental environment under the condition controlling the temperature of 22±2° C., and relative humidity of 55±15%, at light/dark cycle for 1 week prior to experiment.
Briefly, mice were sensitized by intraperitoneal injection of 20 μg OVA (Ovalbumin; A5503, Sigma, St. Louis, Mo.), which was emulsified in 2 mg aluminum hydroxide (A8222, Sigma-Aldrich, MO. USA) in 200 μl of PBS buffer (pH 7.4), biweekly. The mice were challenged through the airways with OVA (1% in PBS) for 30 min using an ultrasonic nebulizer (NE-U12; Omron Corp., Tokyo, Japan) from the 21st day to 23rd day after the initial sensitization. 24 hrs after the antigen treatment, the airway hyperresponsiveness was determined and the mice were sacrificed 48 hrs after the last challenge. The mice were sacrificed with an overdose of pentobarbital (50 mg/kg, Entobal®, Hanil, Korea) 48 h after the last challenge, and a tracheotomy was performed. After 1.4 ml of physiological saline solution (PBS) was instilled into the lungs, bronchoalveolar lavage fluid (BALF) was obtained by aspiration three times via tracheal cannulation.
The groups were divided into several groups, i.e., (a) normal control group(NC): the groups treated or not-treated with OVA; (b) asthma-induced group(OVA): the groups treated with OVA to induce asthma; and (c) comparative group: the groups treated with positive control group (M30, montelukast; 30 mg/kg, PO, Sigma-Aldrich Co. Ltd., SML-0101+OVA) and (d) test sample group: the groups treated with KS534 compound (30 mg/kg, PO, Sigma-Aldrich Co. Ltd., SML-0101+OVA).
The test group consists of 7 mice for each group and various concentrations of the test sample were orally administrated to the mice from 21st to 23rd day after ^1st OVA treatment.
All the result obtained from various experiments was recorded as mean±SD (standard deviation), and the comparison between each group was determined using by one-way ANOVA test using by SPSS 10.0 program. The statistic significance between each group was determined according to Dunnett's multiple comparison tests as a post-hoc test). The result was expressed as P values: <0.05 (*) as statistically significant. […]
BALF was loaded onto a slide and centrifuged to fix the cells onto the slide using a Cellspin machine (Cyto12.5+clip5, Hanil Science Industrial, Korea). The cells were stained by Diff-Quick® Stain reagents (Sysmex, Cat No. 38721, Switzerland) according to the manufacturer's instructions and the number of inflammatory cells in each sample was counted by microscope (×400).
In order to confirm the inhibition effect of test samples on the level of Th2 cytokines (IL-4, IL-5 and IL-13) in bronchoalveolar lavage fluid (BALF), the level of Th2 cytokines (IL-4, IL-5 and IL-13) in bronchoalveolar lavage fluid (BALF) was determined using by ELISA kit (VersaMax, Molecular Devices, USA) specifically reacting with each cytokine according to the manufacture's manual. […]

Each structure is given as a SMILES string. “And” between values parts separate entries of the source, which are not always exact repeats. Equal values may be shown once.

For the compound `O=C(CO)O[C@@H]1O[C@@H]2C[C@H]3[C@H](OC(=O)c4ccc(O)c(O)c4)[C@@H](Cl)[C@@](O)(CO2)[C@@H]13` [KS-534, (3R,5S,5aS,6R,7S,8R,8aS)-8-chloro-8a-hydroxy-5-(2-hydroxyacetoxy) hexahydro-1H-3,6-methanocyclopenta[e][1,3]dioxepin-7-yl3,4-dihydroxybenzoate], the “Inhibitory ratio (%) of MUC5AC secretion” value is recorded as 6.62% in assay [1] (2.5 μm), 21.73% in assay [1] (5 μm) and 35.23% in assay [1] (10 μm). Besides, the “MUC5AC secretion (relative % comparing with TNF-alpha treatment group)” value in assay [1] (2.5 μm) was 93.38% and 93.38 ± 0.90%; in assay [1] (5 μm), 78.27% and 78.27 ± 2.16%; in assay [1] (10 μm), 64.77% and 64.77 ± 1.56%. Further, the “level of Th2 cytokines (IL-4, IL-5 and IL-13) in BALF” value in assay [2] (30 mg/kg PO, ELISA, vs OVA group (FIG. 6)) is given as “significantly reduced”. In addition, the “level of IgE and OVA-specific IgE in blood serum” value in assay [2] (30 mg/kg PO, ELISA, vs OVA group (FIG. 7)) is “significantly reduced”. In addition, the “invasion of the inflamed cells in lung tissue (H&E histology)” value in assay [2] (30 mg/kg PO, vs OVA group (FIG. 8)) is reported as “significantly reduced”. For the same compound, the “mucosal secretion from the goblet cell of bronchial epithelial cells in lung tissue (PAS)” value in assay [2] (30 mg/kg PO, vs OVA group (FIG. 9)) is reported as “significantly reduced”. In assay [2] (oral, vs OVA group (FIG. 5)), the “total number of eosinophil and inflammatory cells in BALF” value is given as “effectively inhibited”.

The values above are taken from US20170217982A1, “Compound isolated from Pseudolysimachion rotundum var. subintegrum, the composition comprising the same for treating allergic disease, inflammatory disease, asthma or chronic obstructive pulmonary disease and the use thereof” (YUNGJIN PHARMACEUTICAL CO., LTD, priority 2014, published 2017).
